# Laboratory results from patent US8093275B2, “Oxazolone and pyrrolidinone-substituted pryidine amides as P2X3 and P2X2/3 antagonists” (Roche Palo Alto LLC, priority 2009, dated 2012).
# Tests used:
# [1] = biological target: T1, human P2X2/3 receptor (Homo sapiens, UniProt P56373+Q9UBL9); assay: P2X2/3 FLIPR (Fluorometric Imaging Plate Reader) assay; assay type: cell-based; details: CHO-K1 cells transfected with human P2X2/3; agonist α,β-meATP 5 μM; FLIPR calcium fluorescence; read-out: pKi P2X2/3 (converted)
# T1 construct: expressed in transfected cells; host or cells: CHO-K1
# T1 sequence (Q9UBL9 1-471): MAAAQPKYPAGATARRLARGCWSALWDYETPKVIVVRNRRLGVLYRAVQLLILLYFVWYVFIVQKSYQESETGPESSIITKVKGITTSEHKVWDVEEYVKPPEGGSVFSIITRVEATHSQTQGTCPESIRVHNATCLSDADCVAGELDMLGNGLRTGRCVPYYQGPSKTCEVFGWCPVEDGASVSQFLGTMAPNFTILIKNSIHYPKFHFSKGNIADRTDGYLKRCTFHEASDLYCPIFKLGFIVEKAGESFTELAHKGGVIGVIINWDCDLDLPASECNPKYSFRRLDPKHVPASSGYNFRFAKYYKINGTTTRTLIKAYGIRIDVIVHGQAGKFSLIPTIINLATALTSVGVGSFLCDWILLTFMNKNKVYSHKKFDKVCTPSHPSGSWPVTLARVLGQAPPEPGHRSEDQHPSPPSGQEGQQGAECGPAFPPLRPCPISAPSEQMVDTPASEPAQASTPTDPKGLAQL
# T1 sequence (P56373 1-397): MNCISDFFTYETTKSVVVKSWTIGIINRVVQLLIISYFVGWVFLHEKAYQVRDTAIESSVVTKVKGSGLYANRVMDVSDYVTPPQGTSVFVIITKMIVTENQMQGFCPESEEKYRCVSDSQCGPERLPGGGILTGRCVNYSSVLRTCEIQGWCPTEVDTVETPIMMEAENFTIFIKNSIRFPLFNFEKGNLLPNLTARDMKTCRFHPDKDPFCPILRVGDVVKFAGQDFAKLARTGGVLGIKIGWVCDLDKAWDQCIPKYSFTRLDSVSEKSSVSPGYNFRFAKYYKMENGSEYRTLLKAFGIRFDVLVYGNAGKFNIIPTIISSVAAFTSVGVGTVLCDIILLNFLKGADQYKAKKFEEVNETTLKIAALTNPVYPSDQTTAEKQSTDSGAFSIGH
# Description: (§1) CHO-K1 cells were transfected with cloned rat P2X3 or human P2X2/3 receptor subunits and passaged in flasks. 18-24 hours before the FLIPR experiment, cells were released from their flasks, centrifuged, and resuspended in nutrient medium at 2.5×10^5 cells/ml. The cells were aliquoted into black-walled 96-well plates at a density of 50,000 cells/well and incubated overnight in 5% CO2 at 37° C. On the day of the experiment, cells were washed in FLIPR buffer (calcium- and magnesium-free Hank's balanced salt solution, 10 mM HEPES, 2 mM CaCl2, 2.5 mM probenecid; FB). Each well received 100 μl FB and 100 μl of the fluorescent dye Fluo-3 AM [2 μM final conc.]. After a 1 hour dye loading incubation at 37° C., the cells were washed 4 times with FB, and a final 75 μl/well FB was left in each well.
# (§2) Test compounds (dissolved in DMSO at 10 mM and serially diluted with FB) or vehicle were added to each well (25 μl of a 4× solution) and allowed to equilibrate for 20 minutes at room temperature. The plates were then placed in the FLIPR and a baseline fluorescence measurement (excitation at 488 nm and emission at 510-570 nm) was obtained for 10 seconds before a 100 μl/well agonist or vehicle addition. The agonist was a 2× solution of α,β-meATP producing a final concentration of 1 μM (P2X3) or 5 μM (P2X2/3). Fluorescence was measured for an additional 2 minutes at 1 second intervals after agonist addition. A final addition of ionomycin (5 μM, final concentration) was made to each well of the FLIPR test plate to establish cell viability and maximum fluorescence of dye-bound cytosolic calcium. Peak fluorescence in response to the addition of α,β-meATP (in the absence and presence of test compounds) was measured and inhibition curves generated using nonlinear regression. PPADS, a standard P2X antagonist, was used as a positive control.
# [2] = biological target: T2, rat P2X3 receptor (Rattus norvegicus, UniProt P49654); assay: P2X3 FLIPR (Fluorometric Imaging Plate Reader) assay; assay type: cell-based; details: CHO-K1 cells transfected with rat P2X3; agonist α,β-meATP 1 μM; FLIPR calcium fluorescence; read-out: pKi P2X3 (converted)
# T2 construct: expressed in transfected cells; host or cells: CHO-K1
# T2 sequence (P49654 1-397): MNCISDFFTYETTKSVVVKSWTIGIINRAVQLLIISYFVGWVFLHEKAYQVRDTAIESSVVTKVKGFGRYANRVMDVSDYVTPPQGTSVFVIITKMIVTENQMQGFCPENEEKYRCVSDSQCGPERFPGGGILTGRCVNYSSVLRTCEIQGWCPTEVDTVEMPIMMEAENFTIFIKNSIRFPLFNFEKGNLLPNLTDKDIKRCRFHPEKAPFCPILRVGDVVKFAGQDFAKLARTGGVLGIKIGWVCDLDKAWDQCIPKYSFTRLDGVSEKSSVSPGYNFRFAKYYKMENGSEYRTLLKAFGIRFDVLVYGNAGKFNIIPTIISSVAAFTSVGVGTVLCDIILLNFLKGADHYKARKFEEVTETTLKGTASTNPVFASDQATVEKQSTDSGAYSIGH
# Description: as §1, §2
Ki [1],Ki [2],Compound
4900 nM,10.5 nM,"CCC1COC(=O)N1c1cc(C(=O)N[C@@H](C)CO)cc(-c2ccc(C)cn2)c1 (stereo partly drawn) [Compound 17, 3-(4-Ethyl-2-oxo-oxazolidin-3-yl)-N-((S)-2-hydroxy-1-methyl-ethyl)-5-(5-methyl-pyridin-2-yl)-benzamide]"
132 nM,2.69 nM,"Cc1ccc(-c2cc(C(=O)NC3CC3)cc(N3C(=O)OC[C@H]3C(C)C)c2)nc1 [Compound 8, N-Cyclopropyl-3-((R)-4-isopropyl-2-oxo-oxazolidin-3-yl)-5-(5-methyl-pyridin-2-yl)-benzamide]"
35.5 nM,3.16 nM,"Cc1ccc(-c2cc(C(=O)NCc3cnc(C)cn3)cc(-n3c(=O)[nH]c4cncnc43)c2)nc1 [Compound 30, N-(5-Methyl-pyrazin-2-ylmethyl)-3-(5-methyl-pyridin-2-yl)-5-(8-oxo-7,8-dihydro-purin-9-yl)-benzamide]"
21.4 nM,7.76 nM,"Cc1ccc(-c2cc(C(=O)NCc3ccc(C)nn3)cc(-n3c(=O)oc4ccccc43)c2)nc1 [Compound 13, N-(6-Methyl-pyridazin-3-ylmethyl)-3-(5-methyl-pyridin-2-yl)-5-(2-oxo-benzooxazol-3-yl)-benzamide]"

# Further lines, the compound ahead of its results:
Compound,Ki [1],Ki [2]
"Cc1ccc(-c2cc(C(=O)NC3CC3)cc(N3C(=O)OC[C@H]3C(C)C)c2)cc1 [Compound 41, 5-((R)-4-Isopropyl-2-oxo-oxazolidin-3-yl)-4′-methyl-biphenyl-3-carboxylic acid cyclopropylamide]",83.2 nM,3.98 nM
"Cc1ccc(-c2cc(C(=O)NC(C)c3cnccn3)cc(N3C(=O)Cc4ccccc43)c2)cc1 (stereo not shown) [Compound 54, 4′-Methyl-5-(2-oxo-2,3-dihydro-indol-1-yl)-biphenyl-3-carboxylic acid (1-pyrazin-2-yl-ethyl)-amide]",112 nM,20 nM
"Cc1ccc(-c2cc(C(=O)NC(C)c3cnccn3)cc(N3C(=O)OC[C@H]3C(C)C)c2)cc1 (stereo partly drawn) [Compound 39, 5-((R)-4-Isopropyl-2-oxo-oxazolidin-3-yl)-4′-methyl-biphenyl-3-carboxylic acid (1-pyrazin-2-yl-ethyl)-amide]",38 nM,9.33 nM
"Cc1ccc(-c2cc(C(=O)NC(C)c3cnccn3)cc(-n3c(=O)oc4ccccc43)c2)cc1 (stereo not shown) [Compound 50, 4′-Methyl-5-(2-oxo-benzooxazol-3-yl)-biphenyl-3-carboxylic acid (1-pyrazin-2-yl-ethyl)-amide]",26.3 nM,12.3 nM
